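All cell lines were grown in 96-well plates and treated with compound for 48 hours. The concentration for full growth arrest is given as TGI.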
Experiments:
Assay in all cases: NCI anticancer screen, dose series, 48 h
[1] = test system: MCF7 breast
[2] = test system: 786-0 renal
[3] = test system: SR leukemia
[4] = test system: SK-MEL-28 melanoma
[5] = test system: NCI-H460 lung
[6] = test system: MDA-N
[7] = test system: A549 NSCLC
[8] = test system: KM12 colon
[9] = test system: LOX IMVI melanoma
[10] = test system: HCC-2998 colon
[11] = test system: HL-60(TB) leukemia
[12] = test system: A498 renal
[13] = test system: SK-OV-3 ovarian
[14] = test system: UO-31 renal
[15] = test system: T-47D breast
[16] = test system: K-562 leukemia
[17] = test system: UACC-62 melanoma
[18] = test system: DU-145 prostate
[19] = test system: SW-620 colon
[20] = test system: SF-539 CNS
[21] = test system: PC-3 prostate
[22] = test system: MDA-MB-435
[23] = test system: HCT-116 colon
[24] = test system: MDA-MB-231 breast
[25] = test system: CCRF-CEM leukemia
[26] = test system: EKVX NSCLC
[27] = test system: RPMI-8226 leukemia
[28] = test system: ACHN renal
[29] = test system: SK-MEL-5 melanoma
[30] = test system: NCI-H23 lung
[31] = test system: SNB-75 CNS
[32] = test system: NCI-H522 lung
[33] = test system: COLO 205 colon
[34] = test system: SF-268 CNS
[35] = test system: HS 578T breast
[36] = test system: IGROV1 ovarian
[37] = test system: NCI-H226 lung
[38] = test system: BT-549 breast
[39] = test system: OVCAR-8 ovarian
[40] = test system: SF-295 CNS
[41] = test system: HCT-15 colon
[42] = test system: SN12C renal
[43] = test system: MOLT-4 leukemia
[44] = test system: MALME-3M melanoma
[45] = test system: M14 melanoma
[46] = test system: SNB-19 CNS
[47] = test system: CAKI-1 renal
[48] = test system: HOP-62 NSCLC
[49] = test system: TK-10 renal
[50] = test system: NCI/ADR-RES ovarian
[51] = test system: U251 CNS
[52] = test system: OVCAR-4 ovarian
[53] = test system: HT29 colon
[54] = test system: UACC-257 melanoma
[55] = test system: SK-MEL-2 melanoma
[56] = test system: HOP-92 NSCLC
[57] = test system: RXF 393 renal
[58] = test system: OVCAR-5 ovarian
[59] = test system: OVCAR-3 ovarian

SMILES: CCN(CC)P(=O)(c1ccc2c(c1)OCCOCCOCCOCCO2)N(CC)CC
- TGI [1]: > 100 µM
- TGI [2]: > 100 µM
- TGI [3]: > 100 µM
- TGI [4]: > 100 µM
- TGI [5]: > 100 µM
- TGI [6]: > 100 µM
- TGI [7]: > 100 µM
- TGI [8]: > 100 µM
- TGI [9]: > 100 µM
- TGI [10]: > 100 µM
- TGI [11]: > 100 µM
- TGI [12]: > 100 µM
- TGI [13]: > 100 µM
- TGI [14]: > 100 µM
- TGI [15]: > 100 µM
- TGI [16]: > 100 µM
- TGI [17]: > 100 µM
- TGI [18]: > 100 µM
- TGI [19]: > 100 µM
- TGI [20]: > 100 µM
- TGI [21]: > 100 µM
- TGI [22]: > 100 µM
- TGI [23]: > 100 µM
- TGI [24]: > 100 µM
- TGI [25]: > 100 µM
- TGI [26]: > 100 µM
- TGI [27]: > 100 µM
- TGI [28]: > 100 µM
- TGI [29]: > 100 µM
- TGI [30]: > 100 µM
- TGI [31]: > 100 µM
- TGI [32]: > 100 µM
- TGI [33]: > 100 µM
- TGI [34]: > 100 µM
- TGI [35]: > 100 µM
- TGI [36]: > 100 µM
- TGI [37]: > 100 µM
- TGI [38]: > 100 µM
- TGI [39]: > 100 µM
- TGI [40]: > 100 µM
- TGI [41]: > 100 µM
- TGI [42]: > 100 µM
- TGI [43]: > 100 µM
- TGI [44]: > 100 µM
- TGI [45]: > 100 µM
- TGI [46]: > 100 µM
- TGI [47]: > 100 µM
- TGI [48]: > 100 µM
- TGI [49]: > 100 µM

SMILES: CCCCCCc1cc2cc(C(=O)Nc3nc(C45CC6CC(CC(C6)C4)C5)cs3)c(=O)oc2cc1O
- TGI [1]: > 100 µM
- TGI [2]: 25.6 µM
- TGI [3]: 26.4 µM
- TGI [4]: > 100 µM
- TGI [5]: 50.3 µM
- TGI [6]: 40.2 µM
- TGI [7]: 54.4 µM
- TGI [50]: 80.5 µM
- TGI [8]: 32.6 µM
- TGI [9]: 30.9 µM
- TGI [10]: 32.8 µM
- TGI [11]: 19.8 µM
- TGI [12]: 31.3 µM
- TGI [13]: 49 µM
- TGI [14]: 67.6 µM
- TGI [15]: 38.1 µM
- TGI [16]: 11 µM
- TGI [51]: 28.6 µM
- TGI [17]: 25.4 µM
- TGI [18]: > 100 µM
- TGI [19]: > 100 µM
- TGI [20]: 38.6 µM
- TGI [21]: 34.3 µM
- TGI [22]: 31.4 µM
- TGI [23]: 13.2 µM
- TGI [24]: 22.3 µM
- TGI [52]: 42.1 µM
- TGI [25]: 50.5 µM
- TGI [26]: 51.4 µM
- TGI [27]: 39 µM
- TGI [53]: > 100 µM
- TGI [28]: 20.8 µM
- TGI [29]: 24.7 µM
- TGI [30]: 33.2 µM
- TGI [31]: 32.4 µM
- TGI [32]: 8.33 µM
- TGI [54]: 68 µM
- TGI [55]: 31.4 µM
- TGI [33]: 32.6 µM
- TGI [34]: 63 µM
- TGI [56]: 24.4 µM
- TGI [35]: 46.9 µM
- TGI [36]: 46.9 µM
- TGI [37]: 44.8 µM
- TGI [38]: 61 µM
- TGI [39]: 43.1 µM
- TGI [40]: 23.6 µM
- TGI [41]: 39.2 µM
- TGI [57]: 30.6 µM
- TGI [42]: 28.7 µM
- TGI [43]: 49.5 µM
- TGI [44]: 51.1 µM
- TGI [58]: 71.3 µM
- TGI [46]: 60.1 µM
- TGI [59]: 39.4 µM
- TGI [47]: 30.1 µM
- TGI [48]: 37.6 µM
- TGI [49]: 34.2 µM
